# From PubChem BioAssay (NCI)
#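 Protocol summary: plate cells (96-well), add compound at 5 concentrations, incubate 48 h, interpolate endpoints linearly. GI50: concentration for 50% inhibition of growth. At the TGI there is no net growth.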
# Experiments:
# Assay in all cases: NCI anticancer screen, dose series, 48 h
# [1] = system: HCC-2998 colon
# [2] = system: A498 renal
# [3] = system: MDA-MB-435
# [4] = system: SR leukemia
# [5] = system: UO-31 renal
# [6] = system: MCF7 breast
# [7] = system: MDA-MB-231 breast
# [8] = system: HCT-116 colon
# [9] = system: OVCAR-3 ovarian
# [10] = system: SF-295 CNS
# [11] = system: NCI/ADR-RES ovarian
# [12] = system: SK-MEL-5 melanoma
# [13] = system: UACC-257 melanoma
# [14] = system: CCRF-CEM leukemia
# [15] = system: SNB-19 CNS
# [16] = system: RXF 393 renal
# [17] = system: CAKI-1 renal
# [18] = system: SF-539 CNS
# [19] = system: DU-145 prostate
# [20] = system: IGROV1 ovarian
# [21] = system: MOLT-4 leukemia
# [22] = system: HS 578T breast
# [23] = system: T-47D breast
# [24] = system: SF-268 CNS
# [25] = system: PC-3 prostate
# [26] = system: UACC-62 melanoma
# [27] = system: 786-0 renal
# [28] = system: BT-549 breast
# [29] = system: NCI-H226 lung
# [30] = system: RPMI-8226 leukemia
# [31] = system: OVCAR-4 ovarian
# [32] = system: U251 CNS
# [33] = system: K-562 leukemia
# [34] = system: ACHN renal
# [35] = system: NCI-H23 lung
# [36] = system: SK-OV-3 ovarian
# [37] = system: HCT-15 colon
# [38] = system: SW-620 colon
# [39] = system: SK-MEL-2 melanoma
# [40] = system: COLO 205 colon
# [41] = system: OVCAR-8 ovarian
# [42] = system: MALME-3M melanoma
# [43] = system: KM12 colon
# [44] = system: EKVX NSCLC
# [45] = system: NCI-H460 lung
# [46] = system: OVCAR-5 ovarian
# [47] = system: HL-60(TB) leukemia
# [48] = system: HT29 colon
# [49] = system: LOX IMVI melanoma
# [50] = system: SN12C renal
# [51] = system: SK-MEL-28 melanoma
# [52] = system: M14 melanoma
# [53] = system: NCI-H522 lung
# [54] = system: SNB-75 CNS
# [55] = system: A549 NSCLC
# [56] = system: HOP-62 NSCLC
# [57] = system: TK-10 renal
smiles,measurement,setting,value
C[C@]12CC[C@H]3[C@@H](CC[C@]4(O)C[C@@H](O[C@@H]5O[C@H](CO)[C@@H](O[C@@H]6OC[C@@H](O)[C@H](O)[C@H]6O)[C@H](O)[C@H]5O)CC[C@]34C=O)[C@@]1(O)CC[C@@H]2C1=CC(=O)OC1,GI50,[1],3090 nM
same,TGI,[1],21300 nM
same,GI50,[2],1230 nM
same,TGI,[2],4500 nM
same,GI50,[3],1710 nM
same,TGI,[3],6170 nM
same,GI50,[4],1060 nM
same,TGI,[4],3270 nM
same,GI50,[5],1540 nM
same,TGI,[5],5010 nM
same,GI50,[6],1300 nM
same,TGI,[6],7570 nM
same,GI50,[7],3380 nM
same,TGI,[7],22000 nM
same,GI50,[8],1470 nM
same,TGI,[8],5770 nM
same,GI50,[9],1170 nM
same,TGI,[9],3080 nM
same,GI50,[10],1700 nM
same,TGI,[10],6270 nM
same,GI50,[11],999 nM
same,TGI,[11],2400 nM
same,GI50,[12],1220 nM
same,TGI,[12],2880 nM
same,GI50,[13],2340 nM
same,TGI,[13],9020 nM
same,GI50,[14],780 nM
same,TGI,[14],5240 nM
same,GI50,[15],2530 nM
same,TGI,[15],9270 nM
same,GI50,[16],1250 nM
same,TGI,[16],3110 nM
same,GI50,[17],886 nM
same,TGI,[17],2260 nM
same,GI50,[18],853 nM
same,TGI,[18],1840 nM
same,GI50,[19],902 nM
same,TGI,[19],2310 nM
same,GI50,[20],1840 nM
same,TGI,[20],17600 nM
same,GI50,[21],302 nM
same,TGI,[21],1820 nM
same,GI50,[22],845 nM
same,TGI,[22],4310 nM
same,GI50,[23],1550 nM
same,TGI,[23],7770 nM
same,GI50,[24],739 nM
same,TGI,[24],2420 nM
same,GI50,[25],780 nM
same,TGI,[25],3570 nM
same,GI50,[26],1610 nM
same,TGI,[26],5040 nM
same,GI50,[27],1420 nM
same,TGI,[27],5190 nM
same,GI50,[28],1060 nM
same,TGI,[28],5200 nM
same,GI50,[29],1470 nM
same,TGI,[29],3690 nM
same,GI50,[30],1900 nM
same,TGI,[30],14600 nM
same,GI50,[31],910 nM
same,TGI,[31],2800 nM
same,GI50,[32],1680 nM
same,TGI,[32],5670 nM
same,GI50,[33],1570 nM
same,TGI,[33],10200 nM
same,GI50,[34],306 nM
same,TGI,[34],1880 nM
same,GI50,[35],839 nM
same,TGI,[35],2710 nM
same,GI50,[36],1750 nM
same,TGI,[36],7690 nM
same,GI50,[37],1600 nM
same,TGI,[37],5120 nM
same,GI50,[38],1350 nM
same,TGI,[38],4670 nM
same,GI50,[39],1490 nM
same,TGI,[39],4440 nM
same,GI50,[40],1980 nM
same,TGI,[40],7240 nM
same,GI50,[41],1620 nM
same,TGI,[41],5560 nM
same,GI50,[42],1490 nM
same,TGI,[42],3450 nM
same,GI50,[43],1980 nM
same,TGI,[43],8230 nM
same,GI50,[44],781 nM
same,TGI,[44],1930 nM
same,GI50,[45],379 nM
same,TGI,[45],1310 nM
same,GI50,[46],1770 nM
same,TGI,[46],6320 nM
same,GI50,[47],1120 nM
same,TGI,[47],3080 nM
same,GI50,[48],1820 nM
same,TGI,[48],5710 nM
same,GI50,[49],1460 nM
same,TGI,[49],5090 nM
same,GI50,[50],414 nM
same,TGI,[50],2490 nM
same,GI50,[51],2760 nM
same,TGI,[51],15600 nM
same,GI50,[52],2380 nM
same,TGI,[52],10500 nM
same,GI50,[53],237 nM
same,TGI,[53],1510 nM
same,GI50,[54],1150 nM
same,TGI,[54],6650 nM
same,GI50,[55],581 nM
same,TGI,[55],1280 nM
same,GI50,[56],702 nM
same,TGI,[56],3000 nM
same,GI50,[57],1190 nM
same,TGI,[57],4490 nM
